A short description of the series: gradient 5% acetonitrile 3 min, to 50% in 2 min, to 85% in 15 min, held 3 min, 100 µL/min. To be noted: column: Zorbax Extend-C18 2.1 x 50 mm; eluents: water / acetonitrile, 0.1% formic acid. In a few lines: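 Over 3 months, pure standards in mixtures of ~100 molecules were run by HPLC coupled to a quadrupole time-of-flight mass spectrometer in positive and negative ionization mode. The column was a Zorbax Extend-C18 (2.1 × 50 mm, 1.8 μm) at 100 μL/min, eluted with water and acetonitrile each holding 0.1% formic acid, with 40 μL dead and 900 μL dwell volumes. Retention time was determined from adduct peaks chosen by software and checked manually.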
Consider `Cn1cc(-c2ccccc2)cc1C(=O)NCc1cccs1`, for which the RP-LC retention time turned out to be 979 s.

As to `COc1cc(NC(=O)C2CCN(S(=O)(=O)c3cn(C(C)C)cn3)CC2)cc(OC)c1OC`, the RP-LC retention time is 707 s.

In the case of `O=C(Nc1ncccn1)c1ccc(Cl)c(S(=O)(=O)N2CCOCC2)c1`, the RP-LC retention time came to 611 s. Consider `Cn1c(=O)c2cc(C(=O)N3CCN(c4ccccc4F)CC3)sc2n(C)c1=O`, for which the RP-LC retention time turned out to be 765 s. The molecule `Cc1sc(NC(=O)c2ccc(F)cc2)nc1-c1ccc(Br)cc1` yielded an RP-LC retention time of 1240 s.

`Cc1ccc(C2CCCN2C(=O)Nc2ccc3c(c2)OCCO3)cc1` (stereo not given) displayed an RP-LC retention time of 922 s. As for `CCCCOc1ccc(-c2cc3c(N4CCN(C)CC4)nccn3n2)cc1`, the RP-LC retention time was 754 s. For the molecule `CSc1ccc(CNC(=O)c2cn3c(n2)COCC3)cc1`, the RP-LC retention time came out at 663 s. `CCOCCCNC(=O)c1cc2sc(Cl)cc2n1C` returned an RP-LC retention time of 939 s. Regarding `Cc1cc(C)c2c(N3CCSCC3)nc(C(=O)N3CCCN(C)CC3)nc2n1`, the RP-LC retention time worked out at 600 s.

With `CCOc1ccc(NC(=O)C2CCN(S(=O)(=O)c3ccc4c(c3)NC(=O)C(C)O4)CC2)cc1` (stereo not given), the RP-LC retention time was found to be 880 s.

Molecule `CCOc1ccc(-c2noc(C3CC(=O)N(c4cc(Cl)ccc4OC)C3)n2)cc1` (stereo not given) gave an RP-LC retention time of 1040 s. To `O=C(c1ccc(F)cc1)N1CCC(n2c(-c3ccoc3)nc3cccnc32)C1` (stereo not given) belongs 712 s; to `COC(=O)N1CCc2ccc(F)cc2C1C(=O)NCc1cccnc1` (stereo not given), 554 s; to `O=S(=O)(NCCC1=CCCCC1)c1ccc(-c2cc(C(F)(F)F)on2)o1`, 1240 s. `COc1ccc(-n2nc(N3CCCC(C(=O)NCc4ccco4)C3)ccc2=O)cc1` (stereo not given): the RP-LC retention time was 740 s. The molecule `O=C(Cn1ncc2c(c1=O)N(C1CC1)C(=O)CS2)Nc1ccc2c(c1)OCCO2` returned an RP-LC retention time of 693 s. In the case of `COc1ccc(-c2noc(C3CCCN3C(=O)c3ccccc3OC)n2)cc1` (stereo not given), the RP-LC retention time was 901 s.

In turn, `COc1cc(NC(=O)COc2nc(C)nc3ccccc23)cc(OC)c1OC` returned an RP-LC retention time of 649 s. `Cc1ccc(-c2coc(-c3ccc(NC(=O)c4ccco4)cc3)n2)c(C)c1` yielded an RP-LC retention time of 1170 s. `O=C(Nc1cc(Cl)ccc1F)C1CC(=O)N(c2ccc3c(c2)CCN3C(=O)C2CC2)C1` (stereo not given) gave an RP-LC retention time of 835 s. Take `CC(C)CNC(=O)N1CCCC(Cc2nncn2C)C1` (stereo not given): the RP-LC retention time is 550 s. On to `Cn1nc(C2CCCN(C(=O)c3ccoc3)C2)n(C2CCCC2)c1=O` (stereo not given), for which the RP-LC retention time turned out to be 672 s. In turn, `COc1ccc2c(C)c(CC(=O)N3CCC(C(N)=O)CC3)c(=O)oc2c1OC` registered an RP-LC retention time of 622 s. For the molecule `O=C(CN1C(=O)C2CCCCN2c2ccc(C(=O)N3CCCCC3)cc21)NCc1cccnc1` (stereo not given), the RP-LC retention time was 615 s. Take `Cc1noc(-c2ccc(NC(=O)c3cn(C)nn3)cc2)n1`: the RP-LC retention time came out at 658 s.

As for `COc1ccc(CC(=O)Nc2ccc(-c3cn4ccsc4n3)cc2)cc1OC`, the RP-LC retention time was 604 s. Turning to `O=C(Cn1nc2c3sc(N4CCCCC4)nc3ncn2c1=O)Nc1ccc(F)c(F)c1`, the RP-LC retention time was 851 s. Turning to `O=C(O)c1cc(N2CCN(CC(=O)N3CCCCCC3)CC2)ccc1NC(=O)C1CC1`, the RP-LC retention time came to 615 s. `CC(C)c1cc(C(=O)Nc2ccccc2)nc2ccnn12` returned an RP-LC retention time of 1080 s.

Molecule `Cc1ccc(C)c(Nc2c(-c3nc(C)no3)cnc3nc(C)ccc23)c1` gave an RP-LC retention time of 813 s.

Molecule `CN(C)c1ncncc1N1CCC(C(=O)N2CCN(c3ccccc3F)CC2)CC1` returned an RP-LC retention time of 650 s.

In the case of `CCOC(=O)c1cc(C2CC2)nc2c1c(=O)n(Cc1cccc(Br)c1)c(=O)n2C`, the RP-LC retention time is 1280 s.

Molecule `O=C(COC(=O)c1cccnc1)Nc1ccc2c(c1)OCO2` had an RP-LC retention time of 640 s. Take `CCCNC(=O)N1CCCCC1c1n[nH]c(C)n1` (stereo not given): the RP-LC retention time was 577 s. `CC(C)NC(=O)N1CCC2(CC1)CCC(O)(CN1CCc3ccccc31)CC2` gave an RP-LC retention time of 882 s.

For the molecule `CNC(=O)c1cc(-c2cccc(OC)c2)nc2ccccc12`, the RP-LC retention time was 800 s.

`COc1ccc(Cl)cc1N1CC(c2nc(-c3ccncc3)no2)CC1=O` (stereo not given): the RP-LC retention time was 752 s. In turn, `CCCCN(C)C(=O)Cn1c(C2CC(=O)N(Cc3ccccc3)C2)nc2ccccc21` (stereo not given) had an RP-LC retention time of 742 s. `Fc1ccc(-c2n[nH]c(C3CCN(Cc4ccoc4)CC3)n2)cc1` registered an RP-LC retention time of 595 s. For the molecule `CCN1C(=O)COc2ccc(-c3noc(-c4ccc5cc[nH]c5c4)n3)cc21`, the RP-LC retention time was 1040 s. Molecule `COc1ccc(Cl)cc1C(=O)NC1CCN(c2cc(-c3cccs3)[nH]n2)CC1` showed an RP-LC retention time of 865 s.

`O=C(NCc1cccnc1)C1CCN(c2nc3ccc(-c4cncnc4)nc3s2)CC1` returned an RP-LC retention time of 584 s. `CN1CCCc2cc(C(CNC(=O)C(=O)Nc3ccc4c(c3)OCCO4)N3CCCC3)ccc21` (stereo not given) returned an RP-LC retention time of 718 s. For `Cc1ccc(S(=O)(=O)N2CCC(C(=O)N3CCCC3c3nc(-c4ccccc4C)no3)CC2)cc1` (stereo not given), the RP-LC retention time is 1090 s.

Take `CCOc1ccc(C(=O)N2CCC3(C2)C(=O)Nc2ccc(OC)cc23)cc1` (stereo not given): the RP-LC retention time came to 737 s. In the case of `O=C(Nc1nc(-c2ccc(F)cc2)cs1)c1cccc(Br)c1` it was 1120 s. To `O=C(NC1CCCCCC1)C1CCCN(C(=O)c2ccc(F)c(F)c2)C1` (stereo not given) belongs 856 s.

As for `O=C(NC1CCCC1)c1ccc(CN2CCN(Cc3ccccc3)C(=O)C2=O)cc1`, the RP-LC retention time was determined as 734 s. Consider `CC(C(=O)Nc1ccc(F)cc1)C1CCN(C(=O)Nc2ccc(F)cc2)CC1` (stereo not given), for which the RP-LC retention time is 834 s. `Cn1c(=O)c2c(nc([N+](=O)[O-])n2Cc2ccc(F)cc2)n(C)c1=O` yielded an RP-LC retention time of 795 s. `CCOC(=O)c1cc(S(=O)(=O)N(C)CC(=O)N2CCN(c3ccccn3)CC2)cn1C` showed an RP-LC retention time of 614 s. With `O=C(Cn1cnc(-c2ccc(Cl)cc2)cc1=O)NCc1cccnc1`, the RP-LC retention time was found to be 568 s.

Consider `COc1nc(N)nc2c1ncn2[C@@H]1O[C@H](CO)[C@@H](O)[C@@H]1O`, for which the RP-LC retention time came out at 568 s. Take `CCc1noc(-c2cccnc2N2CCCN(Cc3ccccc3Cl)CC2)n1`: the RP-LC retention time worked out at 679 s. Molecule `CCCOc1nc2ccccc2nc1N1CCCC(C(=O)NCc2cccc(C)c2)C1` (stereo not given) came in with an RP-LC retention time of 1220 s. For the molecule `CCc1cc(=O)n(CC(=O)Nc2ccc(C)cc2Cl)c(N2CCOCC2)n1`, the RP-LC retention time was 942 s. In the case of `O=C(Cc1nnc2cc(-c3nc(C4CC4)no3)ccn12)NC1CCCCCC1` it was 741 s; in that of `O=C(Nc1cccc(Cl)c1)C1CCN(S(=O)(=O)c2ccc3[nH]c(=O)ccc3c2)CC1`, 808 s; in that of `CC(C)N1CCN(Cc2nc(-c3ccc(N4CCSCC4)nc3)no2)CC1`, 614 s.

These data come from the METLIN SMRT retention time set (Domingo-Almenara et al. 2019).
